Patent US11040981B2, “Pyrrolotriazine compounds and methods of inhibiting TAM kinases” (Syros Pharmaceuticals, Inc., priority 2017, dated 2021)

Tests used:
MERTK = molecular target: T1, MERTK (Homo sapiens, UniProt Q12866); assay: TR-FRET kinase activity assay, MERTK; format: biochemical; settings: for IC50: TR-FRET activity assay, ATP at Km, 60 minutes, read-out: Mer IC50
T1 sequence (Q12866 21-999): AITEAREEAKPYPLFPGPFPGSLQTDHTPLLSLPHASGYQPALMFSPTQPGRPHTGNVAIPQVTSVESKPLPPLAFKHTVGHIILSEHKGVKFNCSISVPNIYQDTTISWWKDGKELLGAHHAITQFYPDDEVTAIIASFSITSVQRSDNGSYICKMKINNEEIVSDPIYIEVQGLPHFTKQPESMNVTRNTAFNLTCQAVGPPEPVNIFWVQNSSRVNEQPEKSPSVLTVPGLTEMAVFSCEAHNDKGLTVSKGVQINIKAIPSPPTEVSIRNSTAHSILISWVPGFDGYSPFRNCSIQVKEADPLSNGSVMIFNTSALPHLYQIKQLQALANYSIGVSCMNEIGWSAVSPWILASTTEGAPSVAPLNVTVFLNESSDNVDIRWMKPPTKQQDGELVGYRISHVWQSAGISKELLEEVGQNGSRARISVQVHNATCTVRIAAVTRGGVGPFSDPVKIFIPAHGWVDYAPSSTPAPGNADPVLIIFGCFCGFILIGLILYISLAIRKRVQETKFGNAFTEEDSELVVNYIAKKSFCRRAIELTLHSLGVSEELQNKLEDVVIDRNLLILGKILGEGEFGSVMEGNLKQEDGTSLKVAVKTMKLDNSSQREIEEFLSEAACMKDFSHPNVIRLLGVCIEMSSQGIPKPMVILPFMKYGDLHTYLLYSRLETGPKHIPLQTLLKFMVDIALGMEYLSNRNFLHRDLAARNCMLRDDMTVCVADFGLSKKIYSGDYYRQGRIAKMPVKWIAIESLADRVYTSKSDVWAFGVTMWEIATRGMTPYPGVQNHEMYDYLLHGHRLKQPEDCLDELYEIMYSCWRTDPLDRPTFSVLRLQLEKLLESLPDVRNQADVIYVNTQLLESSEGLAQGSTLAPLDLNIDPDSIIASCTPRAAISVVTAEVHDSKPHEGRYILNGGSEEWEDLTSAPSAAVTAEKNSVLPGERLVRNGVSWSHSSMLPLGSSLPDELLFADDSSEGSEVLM
Summary of the method: (§1)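 IC50 reflects the drop in TR-FRET between Eu anti-phosphotyrosine antibody and labelled peptide after a 60-minute room-temperature reaction. Buffer was 50 mM HEPES pH 7.5 with 10 mM MgCl2, 1 mM EGTA, 0.01% Brij 35 and 1 mM DTT, with ATP at Km per enzyme and EDTA quench.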

FLT3 = molecular target: T2, FLT3 (Homo sapiens, UniProt P36888); assay: TR-FRET kinase activity assay, FLT3; format: biochemical; settings: ATP at Km, 60 minutes
T2 sequence (P36888 27-993): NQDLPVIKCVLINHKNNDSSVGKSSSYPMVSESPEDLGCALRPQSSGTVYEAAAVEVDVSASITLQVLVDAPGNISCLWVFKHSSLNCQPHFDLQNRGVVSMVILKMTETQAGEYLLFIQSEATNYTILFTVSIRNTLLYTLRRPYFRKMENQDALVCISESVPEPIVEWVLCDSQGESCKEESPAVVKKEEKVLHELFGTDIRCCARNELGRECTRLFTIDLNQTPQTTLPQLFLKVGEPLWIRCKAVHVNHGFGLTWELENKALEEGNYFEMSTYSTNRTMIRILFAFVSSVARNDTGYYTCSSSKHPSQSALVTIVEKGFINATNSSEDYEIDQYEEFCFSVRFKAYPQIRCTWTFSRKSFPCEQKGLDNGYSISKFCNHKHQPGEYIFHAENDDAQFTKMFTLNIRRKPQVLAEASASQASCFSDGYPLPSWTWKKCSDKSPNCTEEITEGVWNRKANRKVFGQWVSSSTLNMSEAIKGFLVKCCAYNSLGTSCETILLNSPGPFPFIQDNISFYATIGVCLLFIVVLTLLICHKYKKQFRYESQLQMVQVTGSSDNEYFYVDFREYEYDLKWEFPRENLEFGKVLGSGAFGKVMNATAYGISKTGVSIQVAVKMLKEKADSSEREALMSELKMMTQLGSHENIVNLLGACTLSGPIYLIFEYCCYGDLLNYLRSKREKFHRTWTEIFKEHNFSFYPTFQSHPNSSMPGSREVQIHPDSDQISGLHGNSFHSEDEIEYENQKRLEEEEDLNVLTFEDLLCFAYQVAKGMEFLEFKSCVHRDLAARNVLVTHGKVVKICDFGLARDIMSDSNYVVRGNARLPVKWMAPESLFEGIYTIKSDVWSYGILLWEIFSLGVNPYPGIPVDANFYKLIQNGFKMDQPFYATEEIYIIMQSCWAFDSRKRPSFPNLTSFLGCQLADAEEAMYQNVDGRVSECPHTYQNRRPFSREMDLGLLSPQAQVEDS
Summary of the method: as §1

[1] = ratio of Mer to FLT3: FLT3 IC50/Mer IC50
[2] = ratio calculated as FLT3 IC50/Mer IC50

SMILES | IC50 (MERTK) | FLT3/Mer ratio (FLT3 IC50/Mer IC50) (MERTK; [1]) | IC50 (FLT3) | FLT3/Mer ratio (FLT3 IC50/Mer IC50) (MERTK; [2])
COC[C@H](C)Nc1ncc2c(N3CC4(COC4)CC3=O)cc([C@H]3CC[C@H](O)CC3)n2n1 [Compound 178] | ≤ 0.1 µM | +++ (“+++” represents a ratio of >100) | 1 to 10 µM | –
COC[C@H](C)Nc1ncc2c(-c3ccc(C4(C(=O)O)CC4)cc3)cc([C@H]3CC[C@H](O)CC3)n2n1 [Compound 173] | ≤ 0.1 µM | +++ (“+++” represents a ratio of >100) | 0.1 to 1 µM | –
COC[C@H](C)Nc1ncc2c(-c3cnccc3C)cc([C@H]3CC[C@H](O)CC3)n2n1 [Compound 168] | ≤ 0.1 µM | +++ (“+++” represents a ratio of >100) | 1 to 10 µM | –
COC[C@H](C)Nc1ncc2c(-c3ccc(C#N)c(F)c3)cc([C@H]3CC[C@H](O)CC3)n2n1 [Compound 169] | ≤ 0.1 µM | +++ (“+++” represents a ratio of >100) | 1 to 10 µM | –
CCCCC[C@H](C)Nc1ncc2c(-c3ccc(S(=O)(=O)N4CCOCC4)cc3)cc([C@H]3CC[C@H](O)CC3)n2n1 [Compound 102, (1S,4r)-4-(2-((S)-heptan-2-ylamino)-5-(4-(morpholinosulfonyl)phenyl)pyrrolo[2,1-f][1,2,4]triazin-7-yl)cyclohexanol] | ≤ 0.1 µM | ++ (“++” represents a ratio of between 10 and 100) | 0.1 to 1 µM | –
COC[C@H](C)Nc1ncc2c(-c3cnn(C4CCOCC4)c3)cc([C@H]3CC[C@H](O)CC3)n2n1 [Compound 151] | ≤ 0.1 µM | +++ (“+++” represents a ratio of >100) | 0.1 to 1 µM | –
COCC(C)Nc1ncc2c(-c3ccc(C(C)N4CCOCC4)cc3)cc(C3CCC(O)CC3)n2n1 (stereo not drawn) [Compound 182] | ≤ 0.1 µM | ++ (“++” represents a ratio of between 10 and 100) | ≤ 0.1 µM | –
COCC(C)Nc1ncc2c(-c3ccc(C(C)N4CCCC4)cc3)cc(C3CCC(O)CC3)n2n1 (stereo not drawn) [Compound 164] | ≤ 0.1 µM | ++ (“++” represents a ratio of between 10 and 100) | ≤ 0.1 µM | –
COC[C@H](C)Nc1ncc2c(-c3cnn(C(C)(C)c4nnco4)c3)cc([C@H]3CC[C@H](O)CC3)n2n1 [Compound 604] | ≤ 0.1 µM | – | 1 to 10 µM | +++ (“+++” represents a ratio of >100)
COC[C@H](C)Nc1ncc2c(-c3ccnc(C)c3)cc([C@H]3CC[C@H](O)CC3)n2n1 [Compound 146] | ≤ 0.1 µM | +++ (“+++” represents a ratio of >100) | 1 to 10 µM | –
CNC(=O)c1ccc(-c2cc([C@H]3CC[C@H](O)CC3)n3nc(N[C@@H](C)COC)ncc23)cn1 [Compound 147] | ≤ 0.1 µM | +++ (“+++” represents a ratio of >100) | 1 to 10 µM | –
COCC(C)Nc1ncc2c(-c3ccc(C(C)(C)c4nnc(C)o4)s3)cc(C3CCC(O)CC3)n2n1 (stereo not drawn) [Compound 611] | ≤ 0.1 µM | – | 0.1 to 1 µM | +++ (“+++” represents a ratio of >100)
COC[C@H](C)Nc1ncc2c(-c3ccc(CN4CCN(C)CC4)cc3)cc([C@H]3CC[C@@H](O)CC3)n2n1 [Compound 155] | ≤ 0.1 µM | ++ (“++” represents a ratio of between 10 and 100) | 0.1 to 1 µM | –
